Measured values taken from patent US20230398130A1, “METHODS AND COMPOSITIONS FOR DIFFERENTIATING STEM CELLS” (Massachusetts Institute of Technology, priority 2020, published 2023).

Key:
[1] = tested on: ISC-enriched organoids; experiment: Primary screen, 384-well 2.5-D organoid differentiation (ENR+CD, 6 days, Target Selective Inhibitor Library, vs whole-plate median): ATP (CellTiter-Glo 3D, CTG); conditions: for Dose.FC.CTG: FC vs plate median; for Dose.FC.CTG (log 2 fold change) / Dose.FC.CTG (log 2 fold change, ATP): vs plate median; for SSMD.CTG: strictly standardized mean difference
[2] = tested on: ISC-enriched organoids; experiment: Primary screen, 384-well 2.5-D organoid differentiation (ENR+CD, 6 days): basal lysozyme secretion (LYZ.NS); format: cell-based, murine; conditions: for Dose.FC.LYZ.NS: FC vs plate median; for Z.LYZ.NS: standard z score of FC; for Dose.FC.LYZ.NS (log 2 fold change) / Dose.FC.LYZ.NS (log 2 fold change, basal lysozyme secretion): vs plate median; for SSMD.LYZ.NS: strictly standardized mean difference
From the text: (§1) High-throughput screening.

[3] = tested on: ISC-enriched organoids; experiment: Primary screen, 384-well 2.5-D organoid differentiation (ENR+CD, 6 days): carbachol-induced lysozyme secretion (LYZ.S); format: cell-based, murine; conditions: for Dose.FC.LYZ.S: FC vs plate median; for Dose.FC.LYZ.S (log 2 fold change) / Dose.FC.LYZ.S (log 2 fold change, carbachol-induced lysozyme secretion): vs plate median; for Z.LYZ.S: standard z score; for SSMD.LYZ.S: strictly standardized mean difference
From the text: as §1

[4] = primary screen, dose 0.08 uM, ENR+CD 6 days
[5] = primary screen, dose 0.40 uM, ENR+CD 6 days
[6] = primary screen, dose 2.00 uM, ENR+CD 6 days
[7] = primary screen, dose 10.00 uM, ENR+CD 6 days
[8] = primary screen, 1st of the 4 dose lines of the treatment (dose not given)
[9] = primary screen, 2nd of the 4 dose lines of the treatment (dose not given)
[10] = primary screen, 3rd of the 4 dose lines of the treatment (dose not given)
[11] = primary screen, 4th of the 4 dose lines of the treatment (dose not given)

SMILES: CS(=O)(=O)N1CCN(Cc2cc3nc(-c4cccc5[nH]ncc45)nc(N4CCOCC4)c3s2)CC1 [GDC-0941]
- Dose.FC.CTG ([1]; Dose 0.08 uM, ENR+CD, 6 days): 0.283 log 2 fold change
- Z.CTG ([1]; Dose 0.08 uM, standard z score of FC): 0.677
- Dose.FC.CTG ([1]; Dose 0.40 uM, ENR+CD, 6 days): 0.022 log 2 fold change
- Z.CTG ([1]; Dose 0.40 uM, standard z score of FC): 0.053
- Dose.FC.CTG ([1]; Dose 2.00 uM, ENR+CD, 6 days): −0.197 log 2 fold change
- Z.CTG ([1]; Dose 2.00 uM, standard z score of FC): −0.472
- Dose.FC.CTG ([1]; Dose 10.00 uM, ENR+CD, 6 days): −1.223 log 2 fold change
- Z.CTG ([1]; Dose 10.00 uM, standard z score of FC): −2.921
- Dose.FC.LYZ.NS ([2]; Dose 0.08 uM, ENR+CD, 6 days): 0.008 log 2 fold change
- Z.LYZ.NS ([2]; Dose 0.08 uM): 0.070
- Dose.FC.LYZ.NS ([2]; Dose 0.40 uM, ENR+CD, 6 days): −0.013 log 2 fold change
- Z.LYZ.NS ([2]; Dose 0.40 uM): −0.112
- Dose.FC.LYZ.NS ([2]; Dose 2.00 uM, ENR+CD, 6 days): −0.128 log 2 fold change
- Z.LYZ.NS ([2]; Dose 2.00 uM): −1.113
- Dose.FC.LYZ.NS ([2]; Dose 10.00 uM, ENR+CD, 6 days): −0.156 log 2 fold change
- Z.LYZ.NS ([2]; Dose 10.00 uM): −1.362
- Dose.FC.LYZ.S ([3]; Dose 0.08 uM, ENR+CD, 6 days): 0.018 log 2 fold change
- Dose.FC.LYZ.S ([3]; Dose 0.40 uM, ENR+CD, 6 days): −0.076 log 2 fold change
- Dose.FC.LYZ.S ([3]; Dose 2.00 uM, ENR+CD, 6 days): −0.248 log 2 fold change
- Dose.FC.LYZ.S ([3]; Dose 10.00 uM, ENR+CD, 6 days): −0.257 log 2 fold change

SMILES: CC(C)CCN1c2nc(Nc3cc(F)c(O)c(F)c3)ncc2N(C)C(=O)C1C (stereo not shown) [BI-D1870]
- Dose.FC.CTG [1, 4]: 0.186 log 2 fold change
- Z.CTG ([1]; primary screen, dose 0.08 uM, standard z score of FC): 0.444
- Dose.FC.CTG [1, 5]: 0.029 log 2 fold change
- Z.CTG ([1]; primary screen, dose 0.40 uM, standard z score of FC): 0.069
- Dose.FC.CTG [1, 6]: −0.012 log 2 fold change
- Z.CTG ([1]; primary screen, dose 2.00 uM, standard z score of FC): −0.028
- Dose.FC.CTG [1, 7]: −0.700 log 2 fold change
- Z.CTG ([1]; primary screen, dose 10.00 uM, standard z score of FC): −1.673
- Dose.FC.LYZ.NS [2, 4]: 0.141 log 2 fold change
- Z.LYZ.NS ([2]; primary screen, dose 0.08 uM): 1.225
- Dose.FC.LYZ.NS [2, 5]: 0.126 log 2 fold change
- Z.LYZ.NS ([2]; primary screen, dose 0.40 uM): 1.099
- Dose.FC.LYZ.NS [2, 6]: −0.066 log 2 fold change
- Z.LYZ.NS ([2]; primary screen, dose 2.00 uM): −0.574
- Dose.FC.LYZ.NS [2, 7]: −0.285 log 2 fold change
- Z.LYZ.NS ([2]; primary screen, dose 10.00 uM): −2.483
- Dose.FC.LYZ.S [3, 4]: 0.162 log 2 fold change
- Dose.FC.LYZ.S [3, 5]: 0.158 log 2 fold change
- Dose.FC.LYZ.S [3, 6]: 0.008 log 2 fold change
- Dose.FC.LYZ.S [3, 7]: −0.378 log 2 fold change

SMILES: O=C(Nc1cc(C(F)(F)F)ccc1N1CCCCC1)c1ccncc1 [SRPIN340]
- Z.CTG (standard z score) ([1]; Dose 0.08 uM, primary screen): 1.005
- Dose.FC.CTG (log 2 fold change) ([1]; Dose 0.08 uM, primary screen): 0.421
- Z.CTG (standard z score) ([1]; Dose 0.40 uM, primary screen): 1.063
- Dose.FC.CTG (log 2 fold change) ([1]; Dose 0.40 uM, primary screen): 0.445
- Z.CTG (standard z score) ([1]; Dose 2.00 uM, primary screen): 1.083
- Dose.FC.CTG (log 2 fold change) ([1]; Dose 2.00 uM, primary screen): 0.453
- Z.CTG (standard z score) ([1]; Dose 10.00 uM, primary screen): 1.115
- Dose.FC.CTG (log 2 fold change) ([1]; Dose 10.00 uM, primary screen): 0.467
- Z.LYZ.NS (standard z score) ([2]; Dose 0.08 uM, primary screen): 1.004
- Dose.FC.LYZ.NS (log 2 fold change) ([2]; Dose 0.08 uM, primary screen): 0.115
- Z.LYZ.NS (standard z score) ([2]; Dose 0.40 uM, primary screen): 0.348
- Dose.FC.LYZ.NS (log 2 fold change) ([2]; Dose 0.40 uM, primary screen): 0.040
- Z.LYZ.NS (standard z score) ([2]; Dose 2.00 uM, primary screen): 0.846
- Dose.FC.LYZ.NS (log 2 fold change) ([2]; Dose 2.00 uM, primary screen): 0.097
- Z.LYZ.NS (standard z score) ([2]; Dose 10.00 uM, primary screen): 0.192
- Dose.FC.LYZ.NS (log 2 fold change) ([2]; Dose 10.00 uM, primary screen): 0.022
- Dose.FC.LYZ.S (log 2 fold change) ([3]; Dose 0.08 uM, primary screen): 0.112
- Dose.FC.LYZ.S (log 2 fold change) ([3]; Dose 0.40 uM, primary screen): 0.098
- Dose.FC.LYZ.S (log 2 fold change) ([3]; Dose 2.00 uM, primary screen): 0.100
- Dose.FC.LYZ.S (log 2 fold change) ([3]; Dose 10.00 uM, primary screen): 0.078

SMILES: CS(=O)(=O)c1ccc(-c2cnc(N)c(C(=O)Nc3ccccc3)n2)cc1 [VE-821]
- Z.CTG (standard z score) ([1]; dose 0.08 uM): 0.508
- Dose.FC.CTG (log 2 fold change, ATP) ([1]; dose 0.08 uM): 0.213
- Z.CTG (standard z score) ([1]; dose 0.40 uM): 0.311
- Dose.FC.CTG (log 2 fold change, ATP) ([1]; dose 0.40 uM): 0.130
- Z.CTG (standard z score) ([1]; dose 2.00 uM): −0.328
- Dose.FC.CTG (log 2 fold change, ATP) ([1]; dose 2.00 uM): −0.137
- Z.CTG (standard z score) ([1]; dose 10.00 uM): −2.006
- Dose.FC.CTG (log 2 fold change, ATP) ([1]; dose 10.00 uM): −0.840
- Z.LYZ.NS (standard z score) ([2]; dose 0.08 uM): 0.924
- Dose.FC.LYZ.NS (log 2 fold change, basal lysozyme secretion) ([2]; dose 0.08 uM): 0.106
- Z.LYZ.NS (standard z score) ([2]; dose 0.40 uM): 0.544
- Dose.FC.LYZ.NS (log 2 fold change, basal lysozyme secretion) ([2]; dose 0.40 uM): 0.063
- Z.LYZ.NS (standard z score) ([2]; dose 2.00 uM): 0.901
- Dose.FC.LYZ.NS (log 2 fold change, basal lysozyme secretion) ([2]; dose 2.00 uM): 0.103
- Z.LYZ.NS (standard z score) ([2]; dose 10.00 uM): −2.475
- Dose.FC.LYZ.NS (log 2 fold change, basal lysozyme secretion) ([2]; dose 10.00 uM): −0.284
- Dose.FC.LYZ.S (log 2 fold change, carbachol-induced lysozyme secretion) ([3]; dose 0.08 uM): 0.130
- Dose.FC.LYZ.S (log 2 fold change, carbachol-induced lysozyme secretion) ([3]; dose 0.40 uM): 0.089
- Dose.FC.LYZ.S (log 2 fold change, carbachol-induced lysozyme secretion) ([3]; dose 2.00 uM): −0.004
- Dose.FC.LYZ.S (log 2 fold change, carbachol-induced lysozyme secretion) ([3]; dose 10.00 uM): −0.429

SMILES: CCn1c(=O)c2c(nc(/C=C/c3ccc(OC)c(OC)c3)n2C)n(CC)c1=O [Istradefylline]
- Z.CTG ([1]; Dose 0.08 uM, primary screen, standard z score): −0.107
- Z.CTG ([1]; Dose 0.40 uM, primary screen, standard z score): 0.158
- Z.CTG ([1]; Dose 2.00 uM, primary screen, standard z score): −0.375
- Z.CTG ([1]; Dose 10.00 uM, primary screen, standard z score): −0.091
- SSMD.CTG [1, 8]: −0.113
- SSMD.CTG [1, 9]: 0.225
- SSMD.CTG [1, 10]: −0.412
- SSMD.CTG [1, 11]: −0.106
- SSMD.LYZ.NS [2, 8]: −0.084
- SSMD.LYZ.NS [2, 9]: −0.362
- SSMD.LYZ.NS [2, 10]: −0.012
- SSMD.LYZ.NS [2, 11]: −0.336
- Z.LYZ.S [3, 8]: −0.190
- Z.LYZ.S [3, 9]: −0.560
- Z.LYZ.S [3, 10]: −0.621
- Z.LYZ.S [3, 11]: −0.367
- SSMD.LYZ.S [3, 8]: −0.139
- SSMD.LYZ.S [3, 9]: −0.661
- SSMD.LYZ.S [3, 10]: −0.578
- SSMD.LYZ.S [3, 11]: −0.289
